Laboratory results: patent US20230026259A1, “CA2 COMPOSITIONS AND METHODS FOR TUNABLE REGULATION” (Obsidian Therapeutics, Inc., priority 2019, published 2023)

Tests used:
Assay type in all cases: cell-based
NIH3T3 cells [1] = assay: Destabilization mutant screening of human CA2 linked to GFP, ligand response by FACS (Valdecoxib, Celecoxib, Acetazolamide)
NIH3T3 cells [2] = assay: as above; remark: listed apart in the source
Procedure: To identify destabilizing mutations of human CA2 that are stabilized upon ligand binding to CA2, two rounds of mutant screening were performed, using a lentivirus CA2 mutant library provided by Genscript (China). These methods were used to generate a library of mutant polypeptides using mutagenesis primers and error prone PCR. Lentiviral vectors expressing the template, wild-type human CA2 operably linked to GFP(OT-001986) was also provided by Genscript along with the CA2 mutant library. The library was packaged into lentivirus, transduced into NIH3T3 cells at a multiplicity of infection (MOI) of approximately 0.3 and select stable cell pools were derived by selecting with selection marker puromycin.
To identify cell pools containing destabilizing mutants of CA2 that are stabilizing when CA2 is bound to its corresponding ligand, cells were sorted using FACS. In the initial round, the bottom 15% of population that was GFP negative in the absence of ligand was selected. Cells were expanded and then treated with 10 μM Celecoxib for 24 hours and harvested for cell sorting. The top 11% GFP positive cells which were also responsive to ligand treatment compared to untreated were collected. Celecoxib was removed from the cultures and replaced with DMSO. […] Genomic DNA was isolated and amplified CA2 mutants were reintroduced to the lentiviral vectors where CA2 was operably linked to GFP. The constructs were transduced into NIH3T3 cells with lentivirus vectors for each clone. The cells were treated with 10 μM Valdecoxib or 10 μM Celecoxib for 24 hours and analyzed by FACS. […] In Table 25, the Construct ID (OT-XXXXXX) refers to the construct which includes the referenced CA2 mutant and the Library ID (LibCXXXXXX) refers to the CA2 mutant itself.
The response of NIH3T3 cells to varying doses of Valdecoxib or Celecoxib for 24 hours was measured and analyzed by FACS.
Clones treated with different ligands were compared to examine the behavior of each mutant with the ligands.

NIH3T3 cells [3] = assay: Immunoblotting of cell lysates for GFP after ligand treatment; conditions: 24 hours
Procedure: The protein expression in the presence of ligand was measured by immunoblotting the cell lysates for GFP.
The protein expression in the presence of ligand was measured by immunoblotting cell lysates for GFP.

[4] = NIH3T3, Celecoxib 0 μM, 24 hours
[5] = NIH3T3, Celecoxib 0.03 μM, 24 hours
[6] = NIH3T3, Celecoxib 0.1 μM, 24 hours
[7] = NIH3T3, Celecoxib 0.3 μM, 24 hours
[8] = NIH3T3, Celecoxib 1 μM, 24 hours
[9] = NIH3T3, Celecoxib 3 μM, 24 hours
[10] = NIH3T3, Celecoxib 10 μM, 24 hours
[11] = NIH3T3, Celecoxib 30 μM, 24 hours
[12] = NIH3T3, Valdecoxib 0 μM, 24 hours
[13] = NIH3T3, Valdecoxib 0.03 μM, 24 hours
[14] = NIH3T3, Valdecoxib 0.1 μM, 24 hours
[15] = NIH3T3, Valdecoxib 0.3 μM, 24 hours
[16] = NIH3T3, Valdecoxib 1 μM, 24 hours
[17] = NIH3T3, Valdecoxib 3 μM, 24 hours
[18] = NIH3T3, Valdecoxib 10 μM, 24 hours
[19] = NIH3T3, Valdecoxib 30 μM, 24 hours

CA2 (aa 2-260 of WT, L156H, S172C, F178Y, E186D) [LibC000193]
Fold change (NIH3T3 cells [1]; NIH3T3, Acetazolamide 0.03 μM vs DMSO): 1.53 | Fold change (NIH3T3 cells [1]; NIH3T3, DMSO (reference), Acetazolamide experiment): 1 | Median PE (NIH3T3 cells [2]; NIH3T3, 10 μM Celecoxib): 7428 | SR (stabilization ratio) (NIH3T3 cells [2]; NIH3T3, 10 μM Celecoxib vs DMSO): 10.71 | Median PE (NIH3T3 cells [2]; NIH3T3, 10 μM Valdecoxib): 6445 | SR (stabilization ratio) (NIH3T3 cells [2]; NIH3T3, 10 μM Valdecoxib vs DMSO): 9.3 | Median FITC / Median PE (NIH3T3 cells [2]; NIH3T3, Acetazolamide 0.03 μM, 24 hours): 854 | Fold change (NIH3T3 cells [2]; NIH3T3, Acetazolamide 0.1 μM vs DMSO): 2.92 | Median FITC / Median PE (NIH3T3 cells [2]; NIH3T3, Acetazolamide 0.1 μM, 24 hours): 1628 | Fold change (NIH3T3 cells [2]; NIH3T3, Acetazolamide 0.3 μM vs DMSO): 6.59 | Median FITC / Median PE (NIH3T3 cells [2]; NIH3T3, Acetazolamide 0.3 μM, 24 hours): 3669 | Fold change (NIH3T3 cells [2]; NIH3T3, Acetazolamide 1 μM vs DMSO): 13.34 | Median FITC / Median PE (NIH3T3 cells [2]; NIH3T3, Acetazolamide 1 μM, 24 hours): 7445 | Fold change (NIH3T3 cells [2]; NIH3T3, Acetazolamide 3 μM vs DMSO): 18.31 | Median FITC / Median PE (NIH3T3 cells [2]; NIH3T3, Acetazolamide 3 μM, 24 hours): 10200 | MFI, comparative analysis (NIH3T3 cells [2]; NIH3T3, Acetazolamide 10 μM): 11900 | Fold change (NIH3T3 cells [2]; NIH3T3, Acetazolamide 10 μM vs DMSO): 21.36 | Median FITC / Median PE (NIH3T3 cells [2]; NIH3T3, Acetazolamide 10 μM, 24 hours): 11900 | MFI, comparative analysis (NIH3T3 cells [2]; NIH3T3, Acetazolamide 30 μM): 12900 | Fold change (NIH3T3 cells [2]; NIH3T3, Acetazolamide 30 μM vs DMSO): 23.16 | Median FITC / Median PE (NIH3T3 cells [2]; NIH3T3, Acetazolamide 30 μM, 24 hours): 12900 | Med (median fluorescence intensity) (NIH3T3 cells [2]; [4]): 826 | SR (stabilization ratio) (NIH3T3 cells [2]; [4]): 1 | Med (median fluorescence intensity) (NIH3T3 cells [2]; [5]): 935 | SR (stabilization ratio) (NIH3T3 cells [2]; [5]): 1.13 | Med (median fluorescence intensity) (NIH3T3 cells [2]; [6]): 1005 | SR (stabilization ratio) (NIH3T3 cells [2]; [6]): 1.22 | Med (median fluorescence intensity) (NIH3T3 cells [2]; [7]): 1211 | SR (stabilization ratio) (NIH3T3 cells [2]; [7]): 1.47 | Med (median fluorescence intensity) (NIH3T3 cells [2]; [8]): 2058 | SR (stabilization ratio) (NIH3T3 cells [2]; [8]): 2.49 | Med (median fluorescence intensity) (NIH3T3 cells [2]; [9]): 4283 | SR (stabilization ratio) (NIH3T3 cells [2]; [9]): 5.19 | Med (median fluorescence intensity) (NIH3T3 cells [2]; [10]): 7751 | SR (stabilization ratio) (NIH3T3 cells [2]; [10]): 9.38 | Med (median fluorescence intensity) (NIH3T3 cells [2]; [11]): 11100 | SR (stabilization ratio) (NIH3T3 cells [2]; [11]): 13.44 | MFI, comparative analysis, normalized to parental day 1 (NIH3T3 cells [2]; NIH3T3, Celecoxib μM (concentration not given)): 6910.53 | MFI, comparative analysis (NIH3T3 cells [2]; NIH3T3, DMSO): 557 | Median PE (NIH3T3 cells [2]; NIH3T3, DMSO): 693 | SR (stabilization ratio) (NIH3T3 cells [2]; NIH3T3, DMSO (reference)): 1 | Median FITC / Median PE (NIH3T3 cells [2]; NIH3T3, DMSO, 24 hours (Acetazolamide experiment)): 557 | Med (median fluorescence intensity) (NIH3T3 cells [2]; [12]): 826 | SR (stabilization ratio) (NIH3T3 cells [2]; [12]): 1 | Med (median fluorescence intensity) (NIH3T3 cells [2]; [13]): 932 | SR (stabilization ratio) (NIH3T3 cells [2]; [13]): 1.13 | Med (median fluorescence intensity) (NIH3T3 cells [2]; [14]): 1013 | SR (stabilization ratio) (NIH3T3 cells [2]; [14]): 1.23 | Med (median fluorescence intensity) (NIH3T3 cells [2]; [15]): 1064 | SR (stabilization ratio) (NIH3T3 cells [2]; [15]): 1.29 | Med (median fluorescence intensity) (NIH3T3 cells [2]; [16]): 1583 | SR (stabilization ratio) (NIH3T3 cells [2]; [16]): 1.92 | Med (median fluorescence intensity) (NIH3T3 cells [2]; [17]): 3667 | SR (stabilization ratio) (NIH3T3 cells [2]; [17]): 4.44 | Med (median fluorescence intensity) (NIH3T3 cells [2]; [18]): 7449 | SR (stabilization ratio) (NIH3T3 cells [2]; [18]): 9.02 | Med (median fluorescence intensity) (NIH3T3 cells [2]; [19]): 9460 | SR (stabilization ratio) (NIH3T3 cells [2]; [19]): 11.45 | MFI, comparative analysis, normalized to parental day 1 (NIH3T3 cells [2]; NIH3T3, Valdecoxib μM (concentration not given)): 6641.277 | stabilization with varying doses of Valdecoxib or Celecoxib (NIH3T3 cells [2]; NIH3T3 cells, 24 hours, FACS): dose dependent stabilization | GFP protein expression by immunoblot, Acetazolamide (NIH3T3 cells [3]; NIH3T3 cells, 0.3, 1, 3, 10 or 30 μM Acetazolamide): stabilization of GFP with increasing ligand doses | GFP protein expression by immunoblot, Celecoxib or Valdecoxib (NIH3T3 cells [3]; NIH3T3 cells, 1, 3, 10 or 30 μM Celecoxib or Valdecoxib): stabilization of GFP with increasing ligand doses
